Measured values published in patent US9474790B2, “Stable, protracted GLP-1/glucagon receptor co-agonists for medical use” (Novo Nordisk A/S, priority 2013, dated 2016).
pIC50: −log10 of the molar value. Numbered stars: 1 amine (or outer) side, 2 acyl side, 3 side chain; on linkers, the order of the positions; unused ones are H or OH. Square brackets hold non-standard residues; d marks the D form. Side chains are listed from the residue outwards. Peptide text beside a SMILES is read from it. * marks the point of attachment. C18 diacid = O=C(O)CCCCCCCCCCCCCCCCC(=O)*; γGlu = O=C(O)[C@H](CCC(=O)[*:2])N[*:1]; AEEA = NCCOCCOCC(=O)O; Aib = CC(C)(N)C(=O)O

Tests used:
[1] = Thioflavin T (ThT) fibrillation assay for physical stability; assay type: physicochemical; conditions: 250 μM in 10 mM HEPES buffer, pH 7.5, 37° C., shaking 960 rpm
Text: The purpose of this assay was to assess the physical stability of the glucagon derivatives of the invention in aqueous solutions.
Low physical stability of a peptide may lead to amyloid fibril formation, which is observed as well-ordered, thread-like macromolecular structures in the sample, which eventually may lead to gel formation. This has traditionally been measured by visual inspection of the sample. However, that kind of measurement is very subjective and depending on the observer. Therefore, the application of a small molecule indicator probe is much more advantageous. Thioflavin T (ThT) is such a probe and has a distinct fluorescence signature when binding to fibrils [Naiki et al; Anal. Biochem. 1989 177 244-249; LeVine; Methods. Enzymol. 1999 309 274-284].
The time course for fibril formation can be described by a sigmoidal curve with the following expression [Nielsen et al; Biochemistry 2001 40 6036-6046]:
Here, as depicted in FIG. 1, F is the ThT fluorescence at the time t. The constant t0 is the time needed to reach 50% of maximum fluorescence. The two important parameters describing fibril formation are the lag-time calculated by t0−2τ and the apparent rate constant kapp 1/τ.
Samples were prepared freshly before each assay. Each sample composition is described in the legends. The pH of the sample was adjusted to the desired value using appropriate amounts of concentrated NaOH and HCl. Thioflavin T was added to the samples from a stock solution in H2O to a final concentration of 1 μM.
Sample aliquots of 200 μl (250 μM of the glucagon derivative/analogue in 10 mM HEPES buffer, pH 7.5) were placed in a 96 well microtiter plate (Packard OptiPlate™-96, white polystyrene). Usually, four or eight replica of each sample (corresponding to one test condition) were placed in one column of wells. The plate was sealed with Scotch Pad (Qiagen).
Incubation at given temperature, shaking and measurement of the ThT fluorescence emission were done in a Fluoroskan Ascent FL fluorescence plate reader (Thermo Labsystems). The temperature was set to 37° C. and the plate was incubated with orbital shaking adjusted to 960 rpm with an amplitude of 1 mm. Fluorescence measurement was done using excitation through a 444 nm filter and measurement of emission through a 485 nm filter.
Each run was initiated by incubating the plate at the assay temperature for 10 min. The plate was measured every 20 minutes for a desired period of time. Between each measurement, the plate was shaken and heated as described.
After completion of the ThT assay the four or eight replica of each sample was pooled and centrifuged at 20000 rpm for 30 minutes at 18° C. The supernatant was filtered through a 0.22 μm filter and an aliquot was transferred to a HPLC vial.
The concentration of peptide in the initial sample and in the filtered supernatant was determined by reverse phase HPLC using an appropriate standard as reference. The percentage fraction the concentration of the filtered sample constituted of the initial sample concentration was reported as the recovery.
The measurement points were saved in Microsoft Excel format for further processing and curve drawing and fitting was performed using GraphPad Prism. The background emission from ThT in the absence of fibrils was negligible. The data points were typically a mean of four or eight samples.
The data set may be fitted to Eq. (1).

human GLP-1 receptor = biological target: T1, human GLP-1 receptor (Homo sapiens, UniProt P43220); experiment: GLP-1 receptor binding, 125I-GLP-1 displacement SPA on isolated membranes; conditions: displacement of 125I-GLP-1 from membranes; read-out: IC50 GLP-1R
T1 construct: expressed in transfected cells; host or cells: BHK cells (parent BHKTS13), clone FCW467-12A/KZ10-1, with CRE luciferase
Method: The purpose of this assay was to test the in vitro receptor binding activity of the glucagon derivatives of the invention. The receptor binding is a measure of affinity of a compound for the human GLP-1 receptor.
The receptor binding of each compound to the human GLP-1 receptor was measured in a displacement binding assay. In this type of assay a labelled ligand (in this case 125I-GLP-1) is bound to the receptor. Each derivative was added in a series of concentrations to isolated membranes containing the human GLP-1 receptor and displacement of the labelled ligand was monitored. The receptor binding was reported as the concentration at which half of the labelled ligand was displaced from the receptor, the IC50 value.
In order to test the binding of the derivatives to albumin, the assay may be performed in a very low concentration of serum albumin (max. 0.001% final assay concentration) as well as in the presence of a higher concentration of serum albumin (2.0% final assay concentration). An increase of the IC50 value, in the presence of serum albumin indicates an affinity to serum albumin and represents a method to predict a protracted pharmacokinetic profile of the test substance in animal models.
The following chemicals were used in the assay: DMEM w/o phenol red (Gibco 11880-028), Pen/strep (Invitrogen 15140-122), G418 (Invitrogen 10131-027), 1 M Hepes (Gibco 15630), EDTA (Invitrogen 15575-038), PBS (Invitrogen 14190-094), fetal calf serum (Invitrogen 16140-071), EGTA, MgCl2 (Merck 1.05832.1000), Tween 20 (Amresco 0850C335), SPA particles (wheat germ agglutinin (WGA) SPA beads, Perkin Elmer RPNQ0001), [125I]-GLP-1]-(7-36)NH2 (produced in-house), OptiPlate™-96 (Perkin Elmer).
Buffer 1 consisted of 20 mM Na-HEPES plus 10 mM EDTA and pH was adjusted to 7.4.
Buffer 2 consisted of 20 mM Na-HEPES plus 0.1 mM EDTA and pH was adjusted to 7.4.
Assay buffer consisted of 50 mM HEPES supplemented with 5 mM EGTA, 5 mM MgCl2, 0.005% Tween 20 and pH was adjusted to 7.4.
The cells used in this assay (clone FCW467-12A) were BHK cells with BHKTS13 as a parent cell line. The cells express the human GLP-1 receptor.
The cells were grown at 5% CO2 in DMEM, 10% fetal calf serum, 1% Pen/Strep (Penicillin/Streptomycin) and 1.0 mg/ml of the selection marker G418. To make a membrane preparation the cells were grown to approximately 80% confluence. The cells were washed twice in phosphate-buffered saline and harvested. The cells were pelleted using a brief centrifugation and the cell pellet was kept on ice. The cell pellet was homogenised with ULTRA-THURRAX dispersing instrument for 20-30 sec in a suitable amount of buffer 1 (e.g. 10 ml). The homogenate was centrifuged for 15 min. The pellet was re-suspended (homogenised) in 10 ml buffer 2 and centrifuged. This step was repeated once more. The resulting pellet was re-suspended in buffer 2 and the protein concentration was determined. The membranes were aliquoted and stored at minus 80° C.
1. For the receptor binding assay, 50 μl of the assay buffer was added to each well of an assay plate.
2. Test compounds were serially diluted to give the following concentrations: 8×10EE-7 M, 8×10EE-8 M, 8×10EE-9 M, 8×10EE-10 M, 8×10EE-11 M, 8×10EE-12 M and 8×10EE-13 M. Twenty-five μl were added to appropriate wells in the assay plate.
3. Cell membrane aliquots were thawed and diluted to their working concentration. Fifty μl were added to each well in the assay plate.
4. WGA SPA beads were suspended in assay buffer at 20 mg/ml. The suspension was diluted to 10 mg/ml in assay buffer just prior to addition to the assay plate. Fifty μl were added to each well in the assay plate.
5. The incubation was started by adding 25 μl of 480 pM solution of [125I]-GLP-1]-(7-36)NH2 to each well of the assay plate. A 25 μl aliquot was reserved for measuring total counts/well.
6. The assay plate was incubated for 2 h at 30° C.
7. The assay plate was centrifuged for 10 min.
8. The assay plate was read in a Perkin Elmer TopCount NXT instrument. […]

T1 sequence (P43220 24-463): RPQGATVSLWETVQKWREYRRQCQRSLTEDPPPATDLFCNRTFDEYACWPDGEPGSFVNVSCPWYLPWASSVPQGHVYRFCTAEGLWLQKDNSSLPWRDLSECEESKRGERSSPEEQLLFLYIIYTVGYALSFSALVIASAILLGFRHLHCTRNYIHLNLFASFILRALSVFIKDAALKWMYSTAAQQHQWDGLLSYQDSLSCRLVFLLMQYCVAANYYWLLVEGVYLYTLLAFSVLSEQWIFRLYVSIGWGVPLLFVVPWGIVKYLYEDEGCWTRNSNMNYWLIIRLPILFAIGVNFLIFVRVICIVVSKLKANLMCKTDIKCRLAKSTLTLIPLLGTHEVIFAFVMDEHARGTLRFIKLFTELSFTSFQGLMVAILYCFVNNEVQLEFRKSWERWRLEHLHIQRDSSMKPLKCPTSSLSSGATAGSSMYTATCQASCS

| Structure (SMILES) | THT assay Lag time (Ex. 76) [1] | pIC50 (human GLP-1 receptor) |
| --- | --- | --- |
| CC(C)C[C@H](NC(=O)[C@H](Cc1c[nH]c2ccccc12)NC(=O)[C@H](C)NC(=O)[C@@H](NC(=O)[C@H](Cc1ccccc1)NC(=O)[C@H](CCC(=O)O)NC(=O)[C@H](CCCNC(=N)N)NC(=O)[C@H](C)NC(=O)[C@H](C)NC(=O)[C@H](CCCCN)NC(=O)[C@H](CCCCNC(=O)CC[C@H](NC(=O)CC[C@H](NC(=O)COCCOCCNC(=O)COCCOCCNC(=O)CC[C@H](NC(=O)CCCCCCCCCCCCCCCCC(=O)O)C(=O)O)C(=O)O)C(=O)O)NC(=O)[C@H](CC(=O)O)NC(=O)[C@H](CC(C)C)NC(=O)[C@H](Cc1ccc(O)cc1)NC(=O)[C@H](CCCCN)NC(=O)[C@H](CO)NC(=O)[C@H](CC(C)C)NC(=O)[C@H](CC(=O)O)NC(=O)[C@H](CO)NC(=O)[C@@H](NC(=O)[C@H](Cc1ccccc1)NC(=O)[C@@H](NC(=O)CNC(=O)[C@H](CCC(N)=O)NC(=O)C(C)(C)NC(=O)[C@@H](N)Cc1c[nH]cn1)[C@@H](C)O)[C@@H](C)O)C(C)C)C(=O)N[C@@H](CC(C)C)C(=O)N[C@@H](CC(N)=O)C(=O)N[C@H](C(N)=O)[C@@H](C)O [Example 17, N^ε29-[(4S)-4-carboxy-4-[[(4S)-4-carboxy-4-[[2-[2-[2-[[2-[2-[2-[[(4S)-4-carboxy-4-(17-carboxyheptadecanoylamino)butanoyl]amino]ethoxy]ethoxy]acetyl]amino]ethoxy]ethoxy]acetyl]amino]butanoyl]amino]butanoyl]-[Aib2,Leu10,Lys16,Lys17,Ala18,Arg20,Glu21,Ala24, Leu27]-Glucagon amide] (H-H[Aib]QGTFTSDLSKYLDK([γGlu-γGlu-AEEA-AEEA-γGlu-C18 diacid])KAAREFVAWLLNT-NH2) | 45 h | 9.70 |
| CC(C)C[C@H](NC(=O)[C@H](Cc1ccc(O)cc1)NC(=O)[C@H](CCCCN)NC(=O)[C@H](CO)NC(=O)[C@H](CC(C)C)NC(=O)[C@H](CC(=O)O)NC(=O)[C@H](CO)NC(=O)[C@@H](NC(=O)[C@H](Cc1ccccc1)NC(=O)[C@@H](NC(=O)CNC(=O)[C@H](CCC(N)=O)NC(=O)C(C)(C)NC(=O)[C@@H](N)Cc1c[nH]cn1)[C@@H](C)O)[C@@H](C)O)C(=O)N[C@@H](CCC(=O)O)C(=O)N[C@@H](CO)C(=O)N[C@@H](CCCCN)C(=O)N[C@@H](C)C(=O)N[C@@H](C)C(=O)N[C@@H](CCCNC(=N)N)C(=O)N[C@@H](CCC(=O)O)C(=O)N[C@@H](Cc1ccccc1)C(=O)N[C@H](C(=O)N[C@@H](CCC(N)=O)C(=O)N[C@@H](Cc1c[nH]c2ccccc12)C(=O)N[C@@H](CC(C)C)C(=O)N[C@@H](CC(C)C)C(=O)N[C@@H](CCCCNC(=O)CC[C@H](NC(=O)CC[C@H](NC(=O)COCCOCCNC(=O)COCCOCCNC(=O)CC[C@H](NC(=O)CCCCCCCCCCCCCCCCC(=O)O)C(=O)O)C(=O)O)C(=O)O)C(=O)N[C@H](C(N)=O)[C@@H](C)O)C(C)C [Example 24, N^ε28-[(4S)-4-carboxy-4-[[(4S)-4-carboxy-4-[[2-[2-[2-[[2-[2-[2-[[(4S)-4-carboxy-4-(17-carboxyheptadecanoylamino)butanoyl]amino]ethoxy]ethoxy]acetyl]amino]ethoxy]ethoxy]acetyl]amino]butanoyl]amino]butanoyl]-[Aib2,Leu10,Glu15,Lys17,Ala18,Arg20,Glu21,Leu27, Lys28]-Glucagon amide] (H-H[Aib]QGTFTSDLSKYLESKAAREFVQWLLK([γGlu-γGlu-AEEA-AEEA-γGlu-C18 diacid])T-NH2; N-terminus assumed) | 28 h | 9.70 |
